Experimental data taken from patent US20100048657A1, “CONTROL OF MALIGNANT CELLS PROLIFERATION THROUGH THE INHIBITION OF CASEIN KINASE 2” (CLEVELAND STATE UNIVERSITY, priority 2006, published 2010).

Experiments:
MEG-01 cells [1] = assay: Thrombocytopoiesis / proplatelet formation by light, DAPI fluorescence and SEM microscopy; type: cell-based, human; conditions: for thrombocytopoiesis: MEG-01 cells
Experimental: For observing the cells with light microscopy and to be able to provide a matrix for them to adhere, Fibronectin (FN), was used at 5 μg/cm^2 and incubated at 37° C. for 1 h, as a coat for the culture dish (6 well plates usually), as recommended by the provider (BD Biosciences, Bedford, Mass., USA) (Jiang et al., 2002).
Cell pictures were routinely taken in the laboratory of using an Olympus CK40 microscope, and the NIH Image software. High quality pictures and live imaging were taken at Cleveland Clinic Foundation Imaging Core.
DAPI staining of cultured MEG-01 cells was done with fresh cells, for live imaging.
Different concentrations of inhibitors were used, and both floating as well as fibronectin bound cells were examined. Proplatelets producing cells were observed as early as from the second day (after 24 hours), but in the third and forth days proplatelets formation was enhanced. […] When such a cell was identified, efforts were taken to focus on it and pictures were taken every 10 seconds for one day.
Cell preparation and pictures were done at the Microscopy Core Facility Cleveland Clinic. Cells were grown for 4 days with DMAT 10 μM and then collected by differential centrifugation. Cells were fixed in glutaraldehyde buffer and then further processed at the Core. The clot was prepared with platelets collected from MEG-01 cultures treated with DMAT 10 μM. Human thrombin 0.5 U/ml for 15 minutes was used to activate them. Then the clot was fixed in suspension.
Referring to FIGS. 10-15, DAPI staining of live MEG-01 cells is illustrated. Apoptotic morphology of MEG-01 cells. In FIG. 10, proplatelets formation in suspension, result of DMAT treatment (10 μM) is shown. FIG. 11 depicts proplatelets formation on Fibronectin, result of DMAT treatment (10 μM). […] This image represents the DAPI staining of cells from FIG. 11. […] FIG. 14 also illustrates phase contrast micrograph of live MEG-01 cells untreated in the 3rd to the 4th day (DMSO), 20×. FIG. 15 illustrates phase contrast micrograph of live MEG-01 cells treated with DMAT 10 μM in the 3rd to the 4th day, 20×. To summarize, FIGS. 10-15 show chromatin condensation, blebbing, cytoplasmic and nuclear fragmentation, as well as polyploidy (increase in the size of the nucleus) of MEG-01 cells following DMAT treatment.

[2] = tested on: platelets from MEG-01 cells; assay: Activation and function of platelets produced by treated MEG-01 cultures (flow cytometry, clot SEM); type: cell-based, human; conditions: for function of platelets obtained in culture: platelets released from treated MEG-01 cells
Experimental: Platelets were also separated from the megakaryocytic cells, by differential centrifugation (Zunino et al., 2001), considering the big size difference between these cells (1-5 μm for platelets and 35-150 μm for megakaryocytic cell line MEG-01) and analyzed separately. Suspension cells were centrifuged first at 100 g to 150 g for 15 minutes, and then the platelets-rich supernatant was kept and centrifuged again at 800 g for 15 minutes. The platelets pellet was resuspended in the appropriate buffer (Tyrode's buffer, pH 7.4), for analysis. For impeding artefactual aggregation of platelets in the control, EDTA and RGDS or RGD were added in the cell suspension from the beginning of the centrifugations. Therefore the control was the inactivated platelets. Special caution was used in order to avoid as much as possible artefactual activation of the control, therefore centrifugations were done at room temperature, no unnecessary washing, no vortexing, gentle removal of supernatants.
Monoclonal antibody PAC-1 recognizes an epitope on the glycoprotein αIIbβ3 of activated platelets. PAC-1 binds only to the activated platelets, and so is very specific. PAC-1 will not bind EDTA and RGD or RGDS treated platelets (Shattil et al., 1987; Shattil et al., 1985; Shattil and Leavitt, 2001).
10 mg/ml RGD or RGDS and 100 mM EDTA were used for negative control (inactivated) on resting platelets.
PAC-1-FITC was purchased from Becton Dickinson Immunocytometry Systems, San Jose, Calif., USA. 20 μl PAC-1-FITC were used for 5 μl fresh platelets suspension, in Tyrode's buffer with CaCl2, as recommended for whole blood by the provider. Different agonists were used, like 1 μg/ml TRAP, 100 nM PMA, as final concentrations (Chen et al., 2004). Activation time was 10-15 minutes.
BD Biosciences protocol for staining was used, with incubation for 30 minutes, in dark, at room temperature.
CD62P is a monoclonal antibody that recognizes an epitope on P-Selectin. P-Selectin is exposed as response to agonist and is a specific sign of platelet activation. 20 μl CD62P-FITC were used for 5 μl fresh platelets suspension, in Tyrode's buffer with CaCl2. Different agonists were used, like 1 μg/ml TRAP, 100 nM PMA or 20 μM ADP as final concentrations. Activation time was 10 minutes. The staining volume was chosen by titration, small volumes giving better staining. Incubation was done in dark at room temperature for 30 minutes, as recommended by BD Biosciences. These assays were done on fresh platelets.
Human fibrinogen was conjugated with Alexa Fluor 488 fluorochrome (F-13191, from Molecular Probes, OR, USA) following recommended Molecular Probes procedure, with the modification that instead the column step, a dialysis step was chosen, in order to obtain a better attachment of dye molecules to fibrinogen. Final concentration of fibrinogen conjugated Alexa Fluor 488 was determined spectrophotometrically. For platelet activation, different agonists were used, like 1 μg/ml TRAP, 100 nM PMA or 20 μM ADP as final concentrations. Activation time was 10-15 minutes. 300 nM labeled fibrinogen was incubated as a final concentration with platelets suspension for 30 minutes, in dark, at room temperature. Fresh platelets were used.
Platelets expose PS when activated and undergo shape change. They will stain positive for AnnexinV (a marker of PS exposure) and will move up on the SSC, FSC as a result of the shape change. For this assay, AnnexinV-FITC from BDBiosciences was used, as recommended by the manufacturer with the specification that the reaction volumes were decreased. Incubation was done in dark, at room temperature for 30 minutes, after activation for 10 minutes of platelets with agonist (like 1 μg/ml TRAP, 100 nM PMA or 20 μM ADP as final concentrations).
Cell preparation and pictures were done at the Microscopy Core Facility Cleveland Clinic. Cells were grown for 4 days with DMAT 10 μM and then collected by differential centrifugation. […]

MEG-01 cells [3] = assay: Viability (proliferation) assay, Trypan blue exclusion; conditions: for proliferation rate / cell number of MEG-01 cells: 4 days of treatment
Source text: In order to check the effect of CK2 inhibitors, the treatments length went up to 4, 5 days without splitting.
Cells were counted using a Neubauer hemacytometer. Trypan blue dye was used according to the manufacturer (Sigma-Aldrich, cat. # T8154).
Cell number (as cells/ml) was estimated using the formula [(total count/0.1)/total surface area counted]*(dilution factor), where 0.1 is the chamber depth, considering the appropriate area counted, half dilution for Trypan blue was considered in calculations. Countings were done as quadruplicates every 24 hours.
Quadruplicates values were used for each sample. Experiments were repeated at least 4 times, in order to see if the trend is correct and reproducible.

[4] = 50 μM, fourth and fifth days (TBB p<0.01, DMAT p<0.005)
[5] = platelets from 10 μM treatment, agonist TRAP

SMILES | thrombocytopoiesis (MEG-01 cells [1]) | function of platelets obtained in culture [2] | proliferation (viability) versus Control untreated (DMSO) (MEG-01 cells [3]; [4]) | proliferation rate / cell number of MEG-01 cells (MEG-01 cells [3]; 100 μM) | proliferation (viability) versus Control untreated (DMSO) (MEG-01 cells [3]; 100 μM, fourth and fifth days, p<0.005) | concentration at which the inhibitor had effect (MEG-01 cells [3]; proliferation arrest and induced apoptosis, TBB concentration required for the same effect as DMAT) | cell surface phenotype by SEM (MEG-01 cells [1]; 10 μM, 3 to 4 days) | maturation and proplatelet formation (MEG-01 cells [1]; 10 μM, as early as from the second day, in suspension and on fibronectin) | platelet shape change ([2]; agonists: human thrombin, TRAP, ADP, PMA) | clot formation by platelets ([2]; platelets from 10 μM treatment, activated with 0.5 U/ml thrombin) | P-Selectin exposure of activated platelets [2, 5] | PAC-1 staining of activated platelets [2, 5] | fibrinogen binding of activated platelets [2, 5] | proliferation (viability) versus Control untreated (DMSO) (MEG-01 cells [3]; 25 μM, fourth and fifth days, p<0.01) | proliferation rate / cell number of MEG-01 cells (MEG-01 cells [3]; 50 μM)
Brc1c(Br)c(Br)c2[nH]nnc2c1Br [TBB, 4,5,6,7-tetrabromobenzotriazole] | induced thrombocytopoiesis | functional | very significant statistical differences | maintained a steady number of cells for the 4 days of treatment and induced extremely significant reduction in the proliferation rate | very significant statistical differences | 50 µM | – | – | – | – | – | – | – | – | –
CN(C)c1nc2c(Br)c(Br)c(Br)c(Br)c2[nH]1 [DMAT, 2-dimethylamino-4,5,6,7-tetrabromo-1H-benzimidazole] | induced thrombocytopoiesis | functional | very significant statistical differences | – | – | – | Pseudopodia and proplatelets formation, as well as blebbing can be observed | induced MEG-01 cells to mature and form proplatelets extensions | capable of undergoing shape change in response to agonists | form a fibrin clot | expose P-Selectin | stain positive for PAC-1 | bind fibrinogen | very significant statistical differences | maintained a steady number of cells for the 4 days of treatment and induced extremely significant reduction in the proliferation rate
